Patent EP0703239A1, “Aminomethylphosphonic and aminomethylphosphinic acids derivatives and their use in the treatment of degenerative articular diseases” (priority 1994, dated 1996)

Assays:
Rattenlebermikrosomen = assay: Inhibition of microsomal lipid peroxidation (malondialdehyde/thiobarbituric acid); format: biochemical, Ratte; conditions: rat liver microsomes, FeSO₄ start, 10 min 37°C; read-out: IC50 Mikrosomale Lipidperoxidation
Method: 4. Hemmung der Mikrosomalen Lipidperoxidation […]
Alle Schritte werden bei 0°C durchgeführt. Die Leber einer Ratte wird, um alles Hämoglobin zu entfernen, mit 0,9 % NaCl-Lösung gründlich gespült. Die grob zerkleinerte Leber wird dann in 10 mM Tris/HCl pH 7,4; 250 mM Saccharose (10 ml Puffer/g Leber) gepottert. Zunächst wird 5 Minuten bei 600xg zentrifugiert. Der Überstand wird dann 10 min bei 12000xg zentrifugiert und wird mit festem CaCl₂ (117,6 mg/100 ml) auf eine Konzentration von 8 mM eingestellt. Durch Zentrifugieren bei 25000 xg (15 min) wird ein Mikrosomenniederschlag gewonnen. Dieser Niederschlag wird im gleichen Volumen Puffer (10 mM Tris/HCl pH 7,4; 150 mM KCl) rehomogenisiert und erneut 15 min bei 25000 xg zentrifugiert.
Ein Testansatz besteht aus 20 µl Mikrosomen (100 mg/ml), vgl. oben, gelöst in Puffer (250 mM Tris/HCl pH 6,6, 750 mM KCl), 10 µl 50 mM MgCl₂, 10 µl 200 mM Isocitronensäure, 10 µl 4mM NADP (3,028 mg/ml Wasser), 10 µl 25 mM Niacinamid, 10 µl Isocitratdehydrogenase (1:100 verdünnt) und 20 µl Wasser oder Testsubstanz. Gestartet wird die Reaktion mit 10 µl 0,25 mM FeSO₄. Die Inkubation dauert 10 Minuten und erfolgt bei 37°C. Gestoppt wird mit 500 µl eiskalter 20 %iger Trichloressigsäure. Entstandenes Malondialdehyd wird durch Zugabe von 500 µl 0,67 %iger Thiobarbitursäure und 30 Minuten Inkubation bei 90°C in eine pinkfarbene Verbindung überführt, die bei 532 nm gemessen wird. Die Extinktion im Kontrollansatz ohne Prüfpräparat wird auf 0 % Hemmung gesetzt, während das völlige Verschwinden des Signals 100 % Hemmung bedeutet.

TNF-alpha = assay: LPS-stimulated interleukin release from human mononuclear cells, ELISA (TNF-alpha); format: cell-based; conditions: 10 µmol/l, 20-22 h, read-out: % Hemmung der Interleukin-Freisetzung
Method: (§1) 5. Freisetzung von Interleukinen (insbesondere IL-1β) aus humanen mononuklearen Zellen
(§2) Die erfindungsgemäßen Verbindungen haben eine starke Hemmwirkung auf die Freisetzung von Interleukinen aus Humanzellen. Dies ist von großer pharmakologischer Bedeutung weil Interleukine die unerwünschte Degradation der Knorpelmatrix auslösen können.
(§3) 10 ml Humanblut, stabilisiert mit 1 ml 3,8 %iger Natriumcitrat-Lösung, werden mit 10 ml PM16 (Serva, Heidelberg) verdünnt und mit 15 ml Lymphoprep (Dr. Molter GmbH, Heidelberg) unterschichtet. Die Proben werden 40 Minuten bei 400 xg (1600 rpm Minifuge 2, Heraeus, Osterode) zentrifugiert (Raumtemperatur). Die mononuklearen Zellen sind als weißer Ring an der Grenze Lymphoprep/Plasma sichtbar. Dieser Ring wird mit einer Spritze vorsichtig entnommen, mit dem gleichen Volumen PM16 verdünnt und 10 Minuten bei 400 xg zentrifugiert. Der Niederschlag wird mit ∼ 10 ml RPMI 1640 (+ 300 mg/l L-Glutamin, Gibco, Eggenstein) gewaschen. Nach Resuspendieren der Zellen in ∼ 1 ml RPMI 1640 (+ 300 mg/l L-Glutamin, + 25 mM HEPES, + 100 µg/ml Streptomycin, + 100 µg/ml Penicillin) wird die Zelldichte mit einem Coulter Counter JT (Coulter Diagnostics) bestimmt und auf 5 * 10⁶/ml eingestellt. Die Zellen bestehen typischerweise aus 90 % Lymphozyten und 10 % Monozyten.
(§4) 230 µl mononukleare Zellen werden mit 10 µl Testsubstanz (10 µM in DMSO/Wasser 1/10) und 10 µl Lipopolysaccharide (500 µg gelöst in 1 ml Dimethylsulfoxid (DMSO) und vor Testbeginn 1/10 mit Wasser verdünnt, von Salmonella abortus equi, Sigma, Deisenhofen) 20-22 Stunden bei 37°C; 5 % CO₂ inkubiert. Die Proben werden in einem Eisbad auf 0°C abgekühlt und in einer Sigma-Zentrifuge zentrifugiert (2 Minuten; 2000 rpm). Aliquote des Überstandes werden mit einem kommerziell erhältlichen ELISA (Biermann, Bad Nauheim) bestimmt.

IL-1alpha = assay: LPS-stimulated interleukin release from human mononuclear cells, ELISA (IL-1alpha); format: cell-based; conditions: 10 µmol/l, 20-22 h, read-out: % Hemmung der Interleukin-Freisetzung
Method: as §1, §2, §3, §4

[1] = tested on: Matrix Metalloproteasen (MMP); assay: Inhibition of matrix metalloproteases from supernatant of PMA-induced synoviocytes, fluorogenic substrate; format: biochemical, Kaninchen
Excerpt: 3. Inhibierung von Matrix Metalloproteasen (MMP)
Die erfindungsgemäßen Verbindungen zeigten deutliche inhibitorische Wirkungen auf proteolytische Enzyme, die sogenannten Matrix Metalloproteasen. Dies ist von großer Bedeutung, weil diese dem Fachmann an sich bekannten Enzyme am proteolytischen Abbau der intakten Knorpelmatrix entscheidend beteiligt sind.
Kaninchen Synoviocyten (HIG-82; ATCC, Rockville, Maryland, USA) werden in Nährmedium HAM'S F12 (Sigma, Deisenhofen, Deutschland, Katalog Nr. N-6760) mit 10 % fötalem Rinder Serum (Sigma, Deisenhofen, Deutschland, Katalog Nr. F-2442), zusammen mit Penicillin 100 U/ml sowie Streptomycin 100 µg/ml, kultiviert. Nach konfluentem Zellwachstum wird die MMP Expression in serumfreiem HAM'S F12 durch Zugabe von 0,3 µmol/l Phorbol-12-Myristat-13-Acetat induziert. Nach 20 h Inkubationszeit bei 37°C wird der Überstand abgenommen.
Der Überstand wird mit Trypsin (5 µg/ml) aktiviert. Nach 15 Minuten (min) bei 37°C wird die Aktivierung durch Zugabe von 1 mmol/l Phenylmethylsulfonylfluorid (PMSF) beendet und für weitere 10 min nachinkubiert. Das Gesamtvolumen des Ansatzes beträgt 210 µl.
Messung der MMP Aktivität (Lit.: C.G. Knight et al.; FEBS Lett. 296, 263 (1992)):
20 µl des obengenannten Überstandes werden 1:10 verdünnt, und mit 240 µl Puffer (0,1 Tris/HCl pH 7,5; 0,1 M NaCl; 0,01 M CaCl₂; 0,05 % Brij) gemischt. Die Prüfsubstanz wird in der angegebenen Konzentration (s. Tabelle) zugegeben. Nach einer Inkubationszeit von 15 min wird die Reaktion durch Zugabe von 20 µmol/l Fluoreszenz-Substanz ((7-Methoxycoumarin-4-yl)acetyl-pro-Leu-Gly-Leu-[3-(2',4'-dinitrophenyl)-L-2,3-diaminopropionyl]-Ala-Arg-NH₂; Bachem, Heidelberg, Deutschland, Kat. Nr.: M-1895) gestartet. Die Reaktion wird nach 30 min durch Zugabe von 10 mmol/l EDTA beendet. Das Gesamtvolumen des Ansatzes beträgt 320 µl. Als Meßparameter dienen die Fluoreszenzintensitäten bei λex: 328 nm und […]. Um die mögliche Eigenfluoreszens der Prüfsubstanzen zu berücksichtigen, werden die Fluoreszenzintensitäten von Parallel-Messungen ohne Substrat von den Messwerten mit Substrat abgezogen. Alle Operationen erfolgen bei 20°C. Im Kontrollexperiment ohne Hemmstoff wird die Fluoreszenz entsprechen 0 % Hemmung gesetzt, während völlige Auslöschung der Fluoreszenz 100 % Hemmung bedeutet.

Chondrozyten = assay: Stimulation of cartilage matrix (proteoglycan) synthesis in chondrocyte agarose culture, 35S-sulfate incorporation; format: cell-based, Rinder; conditions: Chondrocyte, read-out: Stimulationsfaktor der Proteoglykansynthese
Excerpt: 1. Wirksamkeit in der Synthese-Stimulierung von Knorpel-Matrix, Prüfung in der Chondrozyten-Kultur
Zellen: Den Fußgelenken frisch geschlachteter Rinder werden der hyaline Knorpel entnommen, mit Pronase (Boehringer Mannheim) und Collagenase (Sigma), die native Matrix enzymatisch abgebaut, und die Chondrozyten in 1 %iger "low melting Agarose" in 24er Multiwell-Schalen in einer Zelldichte von 4 x 10⁶ pro well ausplattiert.
Medium: Komplettes Medium enthält HAM's F12 (Biochrom KG, Berlin) und 10 % foetales Kälberserum (Boehringer Mannheim), die Testsubstanz wird in Medium gelöst, üblicherweise in einer Konzentration von 10⁻⁵ M zugegeben und bei jedem Mediumwechsel erneut zugefügt.
Versuchsdurchführung: Die Behandlung erfolgt vom dritten bis zehnten Tag der Primärkultur, am 9. […] Die dissoziative Extraktion der Proteoglykane aus der Agarose-Schicht wird mit 8M Guanidinium-Hydrochlorid und beigefügten Proteinase-Inhibitoren (Sigma) unter Schütteln bei 4° C über 24 h durchgeführt. Der Überstand wird nach Zentrifugation über eine PD 10 ®Sephadex G 25 Säule in freies und inkorporiertes Sulfat getrennt, dessen Aktivität nach Aliquotierung im β-Szintillationscounter gemessen wird.
Auswertung: Der Parameter für die Matrixproduktion der Chondrozyten ist die Menge synthetisierter Proteoglykane, gemessen als Sulfatinkorporation in cpm. Aus vier Wells pro Gruppe wird der Mittelwert errechnet. Dieser wird durch den Mittelwert der unbehandelten Kontrolle dividiert, und ergibt somit einen Stimulationsfaktor, der bei Stimulation der Matrixsynthese größer 1 ist, bei Hemmung derselben durch Substanzwirkung kleiner 1, und bei unveränderter Matrixsynthese gleich 1 ist.
Als Standard wird Diacerein eingesetzt, das unter dem Markennamen "Artodar" von der Firma Proter bzw. […] Tabelle II

Structure (SMILES) | IC50 (Rattenlebermikrosomen) [µM] | inhibition at 10 µM (TNF-alpha) [%] | inhibition at 10 µM (IL-1alpha) [%] | Hemmung der MMP ([1]; 30 µM) [%] | Hemmung der MMP ([1]; 100 µM) [%] | fold induction at 10 µM (Chondrozyten)
CCOP(=O)(OCC)C(c1cc(C(C)(C)C)c(O)c(C(C)(C)C)c1)N1CCN(c2ccccc2)CC1 (stereo not drawn) [Beispiel 25] | 2.45 | 36 | 60 | – | – | –
CCOP(=O)(OCC)C(c1cc(C(C)(C)C)c(O)c(C(C)(C)C)c1)N1CCCCC1 (stereo not drawn) [Beispiel 22] | 2.45 | 86 | 80 | 12 | 34 | 1.2
